For test [1], the system named is human A1 adenosine receptor. The settings on record: synthetic agonist; cited from earlier work.
The target in a further test is T1, human A3 receptor (Homo sapiens, UniProt P0DMS8).
T1 sequence (P0DMS8 1-318): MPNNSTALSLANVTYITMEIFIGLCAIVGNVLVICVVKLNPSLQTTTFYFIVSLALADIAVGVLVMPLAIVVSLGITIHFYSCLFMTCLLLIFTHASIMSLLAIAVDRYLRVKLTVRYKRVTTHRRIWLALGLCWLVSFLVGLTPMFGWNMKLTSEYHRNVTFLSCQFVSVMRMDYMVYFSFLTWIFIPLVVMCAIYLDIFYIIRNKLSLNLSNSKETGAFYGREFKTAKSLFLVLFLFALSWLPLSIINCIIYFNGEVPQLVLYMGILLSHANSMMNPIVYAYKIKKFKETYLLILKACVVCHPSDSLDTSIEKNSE
Briefly: Displacement binding of [3H]CPX, yeast membranes expressing hA3R.

In test [2] the target is human adenosine A1 receptor (Homo sapiens, UniProt P30542). As to the kind of experiment: Yeast β-Galactosidase reporter gene assay (strain CY12660): inhibition of NECA-induced β-Galactosidase activity. The settings on record: read-out: Al Yeast IC50. In general terms: In a reporter assay the amount or activity of a reporter protein is the signal.
Chain of human adenosine A1 receptor (P30542 whole entry): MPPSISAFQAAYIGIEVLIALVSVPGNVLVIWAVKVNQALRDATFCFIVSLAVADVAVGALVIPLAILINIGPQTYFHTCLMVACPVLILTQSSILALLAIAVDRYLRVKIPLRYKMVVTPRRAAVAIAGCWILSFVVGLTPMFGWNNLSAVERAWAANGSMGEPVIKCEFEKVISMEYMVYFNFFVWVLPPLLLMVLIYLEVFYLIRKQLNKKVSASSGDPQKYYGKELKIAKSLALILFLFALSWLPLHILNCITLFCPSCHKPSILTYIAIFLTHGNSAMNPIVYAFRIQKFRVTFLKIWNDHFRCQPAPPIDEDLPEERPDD
The target in test [3] is human A1 receptor subtype (Homo sapiens, UniProt P30542).
Chain of human A1 receptor subtype (P30542 whole entry): as above
Test [4] deals with human A2a receptor subtype (Homo sapiens, UniProt P29274). Briefly: Adenosine 2a receptor subtype competition radioligand binding, [3H] CGS-21680, HEK293 membranes. The note with it: for Ki-A2a (selectivity versus other three subtypes): Table 16, Adenosine A2a Receptor Selective Compounds.
Chain of human A2a receptor subtype (P29274 whole entry): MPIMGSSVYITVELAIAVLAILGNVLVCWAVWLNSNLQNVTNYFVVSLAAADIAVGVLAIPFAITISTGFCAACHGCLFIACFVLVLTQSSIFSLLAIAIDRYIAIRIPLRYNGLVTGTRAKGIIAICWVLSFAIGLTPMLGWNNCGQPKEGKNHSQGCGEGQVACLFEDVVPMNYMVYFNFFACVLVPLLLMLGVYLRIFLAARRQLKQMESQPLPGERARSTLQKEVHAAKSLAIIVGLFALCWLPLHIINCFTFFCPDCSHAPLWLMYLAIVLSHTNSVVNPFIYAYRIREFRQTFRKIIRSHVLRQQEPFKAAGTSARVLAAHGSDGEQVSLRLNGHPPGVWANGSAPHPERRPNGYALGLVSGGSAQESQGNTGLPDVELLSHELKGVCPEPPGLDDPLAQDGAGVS
The target of test [5] is T2, human A3 receptor subtype (Homo sapiens, UniProt P0DMS8).
T2 sequence (P0DMS8 1-318): T1 sequence (P0DMS8 1-318)
As to the kind of experiment: Adenosine 3 receptor competition radioligand binding, [125I] AB-MECA, HEK293 membranes. The note with it: for Ki-A3 (selectivity versus other three subtypes): Table 17, Adenosine A3 Receptor Selective Compounds.

Test [6] has as its target T3, human A2b receptor subtype (Homo sapiens, UniProt P29275).
T3 sequence (P29275 1-332): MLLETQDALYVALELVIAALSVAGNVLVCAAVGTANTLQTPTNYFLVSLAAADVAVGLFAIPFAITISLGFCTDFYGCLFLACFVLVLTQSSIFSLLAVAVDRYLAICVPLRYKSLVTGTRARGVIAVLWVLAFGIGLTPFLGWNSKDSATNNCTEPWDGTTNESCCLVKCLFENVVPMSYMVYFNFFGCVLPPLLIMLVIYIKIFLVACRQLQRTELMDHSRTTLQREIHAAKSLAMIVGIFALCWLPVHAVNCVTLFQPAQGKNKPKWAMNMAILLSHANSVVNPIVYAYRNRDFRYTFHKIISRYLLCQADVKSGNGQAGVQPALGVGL
As to the kind of experiment: Adenosine 2b receptor subtype competition radioligand binding, [3H] DPCPX, HEK293 membranes.

Setting [7] is: read-out: Binding Ki (nM) A2a, Table 13.
Where [8] appears, read: read-out: Binding Ki (nM) A2b, Table 13.

Like-named read-outs stand apart in the source and are kept apart here.

The text below walks through data of EP1731520A1, “Pyrrolo[2,3-d]pyrimidine derivatives which are antagonists of adenosine A1, A2A, and A3” (OSI Pharmaceuticals, Inc., priority 1999, dated 2001).

Consider `CC(Cc1ccccc1)Nc1ncnc2c1ncn2[C@@H]1O[C@H](CO)[C@@H](O)[C@H]1O` (single isomer, unassigned; (-)) [PIA, (-)-N6-(2-phenylisopropyl)-adenosine], for which the reported affinity entry in test [1] is “approximately 50 nM”.
The IC50 is the point on the concentration scale where inhibition reaches its midpoint. Regarding `Nc1nc2ccc(Cl)cc2c2nc(-c3ccco3)nn12` [CGS-15943], the IC50 on human A3 receptor was found to be 55.5 nM.
Broadly, the Ki is a measure of affinity in units of concentration, obtained from inhibition or displacement. Consider `Cc1[nH]c2nc(-c3ccsc3)nc(N[C@H]3CC[C@H](O)CC3)c2c1C` [Compound 704], for which the IC50 in test [2] (Table 7, Effect of C2-Substituent) was determined as 297 nM. The Ki in test [3] (read-out: Al Binding Ki, Table 7, Effect of C2-Substituent) was 61.1 nM.
On to `Cc1[nH]c2nc(-c3ccccc3)nc(NCCCO)c2c1C` [Compound 1015], for which the IC50 in test [2] (Table 10, Effect of N6-Substituent) turned out to be 3710 nM.
With `CC(=O)NCCNc1nc(-c2ccccc2)nc2[nH]c(C)c(C)c12` [Compound 1300], the Ki in test [4] (setting [7]) fell in the range of 18 to 48.6 nM.
In the case of `CNC(=O)NCCCNc1nc(-c2ccccc2)nc2[nH]c(C)c(C)c12` [Compound 1310], the activity at 10 µM in test [4] (read-out: % activity @ 10 µM, A2a) turned out to be 76%.
For the compound `Cc1[nH]c2nc(-c3ccccc3)nc(NCCNC(=O)C3(N)CC3)c2c1C` [Compound 1313], the “% activity @ 10 µM, A1” value in test [3] (Table 13, in %, 10 µM) is reported as 30%. Further, the “% activity @ 10 µM, A2a” value in test [4] (Table 13, in %, 10 µM) is 65%.
For `Cc1[nH]c2nc(-c3ccccc3)nc(NCCCNC(=O)CCN)c2c1C` [Compound 1315], the Ki was determined as 507 nM in test [5] (read-out: Binding Ki (nM) A3, Table 13); 75 nM in test [3] (read-out: Binding Ki (nM) A1, Table 13, Profile of Selective Adenosine Antagonists); 720 nM in test [4] (setting [7]); 3.4 nM in test [6] (setting [8]).
Consider `Cc1[nH]c2nc(-c3ccccc3)nc(NCCCNC(=O)CN)c2c1C` [Compound 1316], for which the Ki was 97 nM in test [5], 710 nM in test [4] (setting [7]) and 710 nM in test [6] (setting [8]). Further, the “Ki-A3 (selectivity versus other three subtypes)” value in test [5] is “* (at least 10 times more selective than other three subtypes.)”.
For `O[C@H]1CC[C@H](Nc2nc(-c3ccccc3)nc3[nH]ccc23)CC1` [Compound 1318], the Ki in test [5] was 630 ± 76 nM; in test [6], 2310 ± 926 nM.
Consider `O[C@H]1CC[C@H](Nc2nc(-c3cccc(F)c3)nc3[nH]ccc23)CC1` [Compound 1319, 4-(trans-4-hydroxycyclohexyl)amino-2-(3-fluorophenyl)-7H-pyrrolo [2,3d] pyrimidine], for which the Ki in test [5] came out at 270 nM; in test [4], 206 nM; in test [6], 802 nM.
The corresponding values for `O[C@H]1CC[C@H](Nc2nc(-c3cccc(Cl)c3)nc3[nH]ccc23)CC1` [Compound 1320, 4-(trans-4-hydroxycyclohexyl)amino-2-(3-chlorophenyl)-7H-pyrrolo[2,3d] pyrimidine] are 419 nM, 531 nM and 530 nM.
Regarding `O[C@H]1CC[C@H](Nc2nc(-c3ccncc3)nc3[nH]ccc23)CC1` [Compound 1321, 4-(trans-4-hydroxycyclohexyl)amino-2-(4-pyridyl)-7H-pyrrolo[2,3d]pyrimidine], the activity at 10 µM in test [5] (read-out: % activity @ 10 µM, A3) was found to be 54%. The Ki in test [4] worked out at 131 nM; in test [6], 1030 nM.
Regarding `CC(=O)NCCNc1nc(-c2ccccc2)nc2[nH]c(CNc3ccccc3)cc12` [Compound 1404], in test [4] (read-out: Binding Data Ki (nM) A2a, Table 14), the Ki was 31 nM.
Regarding `NC(=O)[C@H]1CCCN1c1nc(-c2cccc(F)c2)nc2[nH]ccc12` [Compound 1600], the “Ki-A2a (selectivity versus other three subtypes)” value in test [4] is recorded as “* (at least 5 times more selective than other three subtypes.)”.
As for `OC[C@H]1CCCN1c1nc(-c2ccncc2)nc2[nH]ccc12` [Compound 1601], the “Ki-A2a (selectivity versus other three subtypes)” value in test [4] is listed as “* (at least 5 times more selective than other three subtypes.)”.
The same measure, in the same setting: in the case of `NC(=O)[C@H]1CCCN1c1nc(-c2ccncc2)nc2[nH]ccc12` [Compound 1602] it was “* (at least 5 times more selective than other three subtypes.)”; in that of `OC[C@H]1CCCN1c1nc(-c2ccccc2)nc2[nH]ccc12` [Compound 1603], “* (at least 5 times more selective than other three subtypes.)”.
Take `c1ccc(-c2cc3c(N4CCNCC4)nc(-c4ccncc4)nc3[nH]2)cc1` [Compound 1604]: the “Ki-A2a (selectivity versus other three subtypes)” value in test [4] is on record as “* (at least 5 times more selective than other three subtypes.)”.
Still for that read-out and setting: to `OC[C@H]1C[C@@H](O)CN1c1nc(-c2ccncc2)nc2[nH]ccc12` [Compound 1605] belongs “* (at least 5 times more selective than other three subtypes.)”.
Still for that read-out and setting: to `COC(=O)C(C)(C)NCc1cc2c(N3CCC[C@@H]3CO)nc(-c3ccccc3)nc2[nH]1` [Compound 1606] belongs “* (at least 5 times more selective than other three subtypes.)”; to `OCC1CCCN(c2nc(-c3ccncc3)nc3[nH]ccc23)C1` (stereo not shown) [Compound 1607], “* (at least 5 times more selective than other three subtypes.)”; to `CC(=O)NCCNc1nc(-c2ccncc2)nc2[nH]c(C)c(CN(C)Cc3ccccc3)c12` [Compound 1608], “* (at least 5 times more selective than other three subtypes.)”.
For `O=C(NCCNc1nc(-c2ccccc2)nc2[nH]ccc12)c1ccc[nH]1` [Compound 1707], in test [5], the “Ki-A3 (selectivity versus other three subtypes)” value is listed as “* (at least 10 times more selective than other three subtypes.)”.
Turning to `O=C1NCCN1CCNc1nc(-c2ccccc2)nc2[nH]c(-c3ccccc3)cc12` [Compound 1708], in test [5], the “Ki-A3 (selectivity versus other three subtypes)” value is on record as “* (at least 10 times more selective than other three subtypes.)”.
For the compound `CC(C)C(Nc1nc(-c2ccccc2)nc2[nH]c(-c3ccccc3)cc12)C(N)=O` (stereo not shown) [Compound 1709], the “Ki-A3 (selectivity versus other three subtypes)” value in test [5] was “* (at least 10 times more selective than other three subtypes.)”.
For the compound `NC(=O)C(Cc1ccccc1)Nc1nc(-c2ccccc2)nc2[nH]c(-c3ccccc3)cc12` (stereo not shown) [Compound 1710], the “Ki-A3 (selectivity versus other three subtypes)” value in test [5] is “* (at least 10 times more selective than other three subtypes.)”.
As to `OCC1CN(c2nc(-c3ccccc3)nc3[nH]ccc23)C1` [Compound 1711], the “Ki-A3 (selectivity versus other three subtypes)” value in test [5] was “* (at least 10 times more selective than other three subtypes.)”.
Consider `Clc1cccc(OCc2cc3c(NCCc4ccc[nH]4)nc(-c4ccccc4)nc3[nH]2)c1` [Compound 1712], for which the “Ki-A3 (selectivity versus other three subtypes)” value in test [5] is “* (at least 10 times more selective than other three subtypes.)”.
For `CC(=O)NCCNc1nc(-c2ccccc2)nc2[nH]c(CN3CCC[C@H]3CNc3ccccc3)cc12` [Compound 1713], in test [5], the “Ki-A3 (selectivity versus other three subtypes)” value was “* (at least 10 times more selective than other three subtypes.)”.
On to `OC[C@@H](Nc1nc(-c2ccccc2)nc2[nH]c(COc3cccc(Cl)c3)cc12)c1ccccc1` [Compound 1714], for which, in test [5], the “Ki-A3 (selectivity versus other three subtypes)” value is listed as “* (at least 10 times more selective than other three subtypes.)”.
Turning to `CNC(=O)N1CCCCC1CNc1nc(-c2ccccc2)nc2[nH]c(COc3cccc(Cl)c3)cc12` (stereo not shown) [Compound 1715], the “Ki-A3 (selectivity versus other three subtypes)” value in test [5] was “* (at least 10 times more selective than other three subtypes.)”.
Same read-out and setting: to `COC(=O)CC1CCN(c2nc(-c3ccccc3)nc3[nH]c(COc4cccc(Cl)c4)cc23)C1` (stereo not shown) [Compound 1716] belongs “* (at least 10 times more selective than other three subtypes.)”; to `NC(=O)CC1CCN(c2nc(-c3ccccc3)nc3[nH]c(COc4cccc(Cl)c4)cc23)C1` (stereo not shown) [Compound 1717], “* (at least 10 times more selective than other three subtypes.)”.
On to `OCC1CCCN(c2nc(-c3ccccc3)nc3[nH]c(COc4cccc(Cl)c4)cc23)C1` (stereo not shown) [Compound 1718], for which the “Ki-A3 (selectivity versus other three subtypes)” value in test [5] is “* (at least 10 times more selective than other three subtypes.)”.
Still for that read-out and setting: to `CNC(=O)NCCCNc1nc(-c2ccc(Cl)cc2)nc2[nH]ccc12` [Compound 1719] belongs “* (at least 10 times more selective than other three subtypes.)”.
For the compound `c1ccc(-c2nc(NCCc3cnc[nH]3)c3cc[nH]c3n2)cc1` [Compound 1720, [2-(3H-Imidazol-4-yl)-ethyl]-(2-phenyl-7H-pyrrolo[2,3-d]pyrimidin-4-yl)-amine], in test [5] (competition radio ligand binding), the “A3 receptor binding affinity relative to reference compound 1308” value was “greater than 10 times”.
